Test results published in paper PMC7804430, “Synthesis and tumour cell uptake studies of gadolinium(III)–phosphonium complexes” (Scientific Reports, 2021).

Assays:
[1] = Competition (challenge) stability assay with xylenol orange at acidic pH; assay type: physicochemical; settings: absorbance shift 433 to 573 nm
Description: In this work, the relative stability of complexes 6 and 7 were compared to the previously-reported archetypal Gd(III)-DO3A triphenylphosphonium complex (11, shown in Fig. 2) at acidic pH by means of a competition (challenge) assay using the lanthanoid(III) ion indicator xylenol orange[32]. These assays were performed under mildly acidic conditions to ensure the phenolic hydroxyl was protonated prior to chelation.
Solution stability assays were performed using the method described by Barge et al.[32]. Initially an acetate buffer solution (50 mM) was prepared, a portion of which was adjusted to pH 5.8 using NaOH, while other portions were adjusted to pH 5.0, 4.0, or 3.0 using glacial acetic acid. Xylenol orange (5.81 mg) was dissolved in the pH 5.8 acetate buffer (48.4 mL) to give a 10 × concentrated stock solution. These solutions were treated as light sensitive, work was conducted in minimal light and solutions were covered in foil.
25 mM stock solutions of each GdCl3, […] 11 were prepared in the various buffer solutions. […] The plates were agitated in a plate reader and allowed to equilibrate for 24 h. […] The plates were again agitated in a plate reader and allowed to equilibrate for 15 min at RT. The absorbance values were then determined at both 573 nm and 433 nm by means of a BMG LABTECH POLARstar Omega, UV Spectrometer, and the data plotted and processed using Graphpad Prism 7.

[2] = literature values for HPLC calibration curve; cited from earlier work
HF1 tumour cell line = test system: HF1 tumour cell line; set-up: method as in PMID 19825958, PMID 15388578; settings: cited from earlier work

Molecule: [Cl][Gd]([Cl])[Cl] [GdCl3]
- % Gd^3+ retention ([1]; pH 5.0, 24 h): 0%
- % Gd^3+ retention ([1]; pH 5.8, 24 h): 0%

Molecule: Nc1ccccc1 [aniline]
- logD7.4 of calibration standards [2]: 0.90

Molecule: c1ccc(N(c2ccccc2)c2ccccc2)cc1 [triphenylamine]
- logD7.4 of calibration standards [2]: 5.74

Molecule: Motexafin-Gd [MGd]
- IC50 (HF1 tumour cell line; HF1 tumour cell line, read-out: Concentration resulting in 50% cell arrest): < 100 µM
- Concentration exhibiting significant cytotoxicity (HF1 tumour cell line; in the absence of any X-ray irradiation): ca. 50 μM
